From US12065436B2, “Cardiac sarcomere inhibitors” (Cytokinetics, Inc., priority 2018, dated 2024)

Target: bovine cardiac myofibrils (full-length cardiac myosin ATPase in the native sarcomere) (Bos taurus (Bovine), UniProt Q9BE39)
Test: Skinned bovine cardiac myofibril ATPase assay (PK/LDH-coupled)
Assay type: biochemical
Details: Ca2+ activating to 75% of maximal rate; for CDMF75 IC15: concentration giving 15% inhibition; for IC50: read-out: CDMF75 IC50
Summary of the method: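 Inhibition of steady-state ATPase read at 340 nm through a PK/LDH-coupled NADH system (0.5 mM NADH, 1.5 mM PEP). Detergent-skinned bovine cardiac myofibrils, 1 mg/mL, were tested at pH 6.8 in PIPES/MgCl2 with 50 μM ATP and calcium adjusted to give pCa50 or pCa75 activation.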

Sequence of bovine cardiac myofibrils (full-length cardiac myosin ATPase in the native sarcomere) (Q9BE39 whole entry): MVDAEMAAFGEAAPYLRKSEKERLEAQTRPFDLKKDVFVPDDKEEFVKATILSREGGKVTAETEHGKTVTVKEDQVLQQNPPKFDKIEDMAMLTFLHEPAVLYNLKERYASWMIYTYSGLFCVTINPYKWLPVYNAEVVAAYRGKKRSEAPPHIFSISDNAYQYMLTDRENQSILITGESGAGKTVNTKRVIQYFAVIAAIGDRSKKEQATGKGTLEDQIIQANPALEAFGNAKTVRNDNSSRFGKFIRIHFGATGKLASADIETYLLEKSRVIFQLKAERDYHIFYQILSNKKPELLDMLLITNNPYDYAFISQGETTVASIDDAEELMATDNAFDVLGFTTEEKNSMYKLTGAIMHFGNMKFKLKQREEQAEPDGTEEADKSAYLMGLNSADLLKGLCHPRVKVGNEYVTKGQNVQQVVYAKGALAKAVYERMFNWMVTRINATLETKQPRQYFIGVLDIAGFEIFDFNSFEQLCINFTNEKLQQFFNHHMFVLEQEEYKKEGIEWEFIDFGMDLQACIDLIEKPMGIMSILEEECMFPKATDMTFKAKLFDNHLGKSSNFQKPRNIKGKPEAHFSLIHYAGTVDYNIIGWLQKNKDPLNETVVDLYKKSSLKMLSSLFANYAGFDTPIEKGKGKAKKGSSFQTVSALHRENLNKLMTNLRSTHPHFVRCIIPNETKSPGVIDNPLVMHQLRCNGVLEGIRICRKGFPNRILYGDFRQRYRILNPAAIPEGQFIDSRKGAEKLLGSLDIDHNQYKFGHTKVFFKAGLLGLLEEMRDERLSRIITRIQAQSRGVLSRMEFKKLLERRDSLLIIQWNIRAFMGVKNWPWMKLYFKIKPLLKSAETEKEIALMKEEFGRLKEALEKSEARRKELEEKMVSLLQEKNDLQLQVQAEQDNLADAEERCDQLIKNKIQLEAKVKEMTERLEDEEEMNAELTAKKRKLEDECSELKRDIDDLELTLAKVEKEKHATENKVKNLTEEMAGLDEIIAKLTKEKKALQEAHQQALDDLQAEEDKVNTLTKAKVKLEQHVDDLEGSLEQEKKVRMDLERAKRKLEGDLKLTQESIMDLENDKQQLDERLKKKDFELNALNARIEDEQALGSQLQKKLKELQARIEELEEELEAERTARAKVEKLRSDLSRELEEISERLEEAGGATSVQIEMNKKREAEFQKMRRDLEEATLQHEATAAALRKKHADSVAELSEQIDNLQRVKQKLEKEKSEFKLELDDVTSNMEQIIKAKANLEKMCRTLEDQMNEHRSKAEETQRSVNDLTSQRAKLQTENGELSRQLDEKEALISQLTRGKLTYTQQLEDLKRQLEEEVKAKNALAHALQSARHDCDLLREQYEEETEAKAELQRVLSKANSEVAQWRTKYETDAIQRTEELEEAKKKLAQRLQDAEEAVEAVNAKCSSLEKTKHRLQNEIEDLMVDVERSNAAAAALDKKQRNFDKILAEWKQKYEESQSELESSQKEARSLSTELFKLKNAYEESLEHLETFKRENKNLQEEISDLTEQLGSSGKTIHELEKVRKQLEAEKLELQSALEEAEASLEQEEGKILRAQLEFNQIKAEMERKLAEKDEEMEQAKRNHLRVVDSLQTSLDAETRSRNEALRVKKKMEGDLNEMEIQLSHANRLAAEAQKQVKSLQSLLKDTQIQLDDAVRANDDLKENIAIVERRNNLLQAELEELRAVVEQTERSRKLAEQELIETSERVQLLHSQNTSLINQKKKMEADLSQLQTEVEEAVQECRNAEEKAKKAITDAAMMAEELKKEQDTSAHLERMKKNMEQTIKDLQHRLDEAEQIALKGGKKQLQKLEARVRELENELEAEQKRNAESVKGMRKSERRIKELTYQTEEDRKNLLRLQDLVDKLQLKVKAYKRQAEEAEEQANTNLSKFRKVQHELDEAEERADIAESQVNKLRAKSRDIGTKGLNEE
Sequence of bovine cardiac myofibrils (full-length cardiac myosin ATPase in the native sarcomere) (P85100 whole entry partner): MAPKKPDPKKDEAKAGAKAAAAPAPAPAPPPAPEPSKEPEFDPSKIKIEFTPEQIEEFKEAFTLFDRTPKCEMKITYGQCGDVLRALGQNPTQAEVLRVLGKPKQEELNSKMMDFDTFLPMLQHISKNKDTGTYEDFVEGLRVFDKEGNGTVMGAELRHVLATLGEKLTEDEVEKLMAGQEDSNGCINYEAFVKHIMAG
Sequence of bovine cardiac myofibrils (full-length cardiac myosin ATPase in the native sarcomere) (Q3SZE5 whole entry partner): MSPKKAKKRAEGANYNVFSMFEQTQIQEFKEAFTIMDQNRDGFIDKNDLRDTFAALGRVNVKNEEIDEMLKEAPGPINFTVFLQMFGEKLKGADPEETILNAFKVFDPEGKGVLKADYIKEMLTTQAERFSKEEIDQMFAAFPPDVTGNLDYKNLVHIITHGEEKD

SMILES	CDMF75 IC15	IC50
Cc1c(C(=O)N[C@@H]2CCc3cc(-c4nc(C5CC5)no4)ccc32)cnn1C [Compound 259, (R)-N-(5-(3-cyclopropyl-1,2,4-oxadiazol-5-yl)-2,3-dihydro-1H-inden-1-yl)-1,5-dimethyl-1H-pyrazole-4-carboxamide]	0.8 µM	3 µM
Cn1nnc(C(=O)N[C@@H]2CCc3cc(-c4nc(C5CC5)no4)ccc32)n1 [Compound 260, (R)-N-(5-(3-cyclopropyl-1,2,4-oxadiazol-5-yl)-2,3-dihydro-1H-inden-1-yl)-2-methyl-2H-tetrazole-5-carboxamide]	0.4 µM	1.4 µM
Cn1nccc1C(=O)N[C@@H]1CCc2cc(-c3nc(C4CC4)no3)ccc21 [Compound 261, (R)—N-(5-(3-cyclopropyl-1,2,4-oxadiazol-5-yl)-2,3-dihydro-1H-inden-1-yl)-1-methyl-1H-pyrazole-5-carboxamide]	0.4 µM	1.2 µM
[2H]C([2H])([2H])c1nc(-c2ccc3c(c2)OC[C@H]3NC(=O)c2ccnn2C)no1 [Compound 262, (S)-1-methyl-N-(6-(5-(methyl-d3)-1,2,4-oxadiazol-3-yl)-2,3-dihydrobenzofuran-3-yl)-1H-pyrazole-5-carboxamide]	0.7 µM	1.9 µM
Cc1noc(-c2ccc3c(c2)CC[C@H]3NC(=O)c2cnn(C)c2)n1 [Compound 263, (R)-1-methyl-N-(5-(3-methyl-1,2,4-oxadiazol-5-yl)-2,3-dihydro-1H-inden-1-yl)-1H-pyrazole-4-carboxamide]	2.8 µM	10.5 µM
Cc1noc(-c2ccc3c(c2)CC[C@H]3NC(=O)c2cnn(C)c2C)n1 [Compound 264, (R)-1,5-dimethyl-N-(5-(3-methyl-1,2,4-oxadiazol-5-yl)-2,3-dihydro-1H-inden-1-yl)-1H-pyrazole-4-carboxamide]	1.8 µM	6.6 µM
[2H]C([2H])([2H])c1nc(-c2ccc3c(c2)OC[C@H]3NC(=O)c2cnn(C)c2)no1 [Compound 265, (S)-1-methyl-N-(6-(5-(methyl-d3)-1,2,4-oxadiazol-3-yl)-2,3-dihydrobenzofuran-3-yl)-1H-pyrazole-4-carboxamide]	1.0 µM	3.4 µM
[2H]C([2H])([2H])c1nc(-c2ccc3c(c2)OC[C@H]3NC(=O)c2cc(C)nn2C)no1 [Compound 266, (S)-1,3-dimethyl-N-(6-(5-(methyl-d3)-1,2,4-oxadiazol-3-yl)-2,3-dihydrobenzofuran-3-yl)-1H-pyrazole-5-carboxamide]	0.9 µM	2.7 µM
[2H]C([2H])([2H])c1nc(-c2ccc3c(c2)OC[C@H]3NC(=O)c2cnc(C)o2)no1 [Compound 267, (S)-2-methyl-N-(6-(5-(methyl-d3)-1,2,4-oxadiazol-3-yl)-2,3-dihydrobenzofuran-3-yl)oxazole-5-carboxamide]	1.2 µM	4.4 µM
[2H]C([2H])([2H])c1nc(-c2ccc3c(c2)OC[C@H]3NC(=O)c2oc(C)nc2C)no1 [Compound 268, (S)-2,4-dimethyl-N-(6-(5-(methyl-d3)-1,2,4-oxadiazol-3-yl)-2,3-dihydrobenzofuran-3-yl)oxazole-5-carboxamide]	1.9 µM	5.1 µM
[2H]C([2H])([2H])c1nc(-c2ccc3c(c2)OC[C@H]3NC(=O)c2cnn(C)c2C)no1 [Compound 269, (S)-1,5-dimethyl-N-(6-(5-(methyl-d3)-1,2,4-oxadiazol-3-yl)-2,3-dihydrobenzofuran-3-yl)-1H-pyrazole-4-carboxamide]	1.1 µM	3.5 µM
[2H]C([2H])([2H])c1nc(-c2ccc3c(c2)OC[C@H]3NC(=O)c2cn(C)nc2C)no1 [Compound 270, (S)-1,3-dimethyl-N-(6-(5-(methyl-d3)-1,2,4-oxadiazol-3-yl)-2,3-dihydrobenzofuran-3-yl)-1H-pyrazole-4-carboxamide]	0.9 µM	3.1 µM
[2H]C([2H])([2H])c1nc(-c2ccc3c(c2)OC[C@H]3NC(=O)c2nnn(C)n2)no1 [Compound 271, (S)-2-methyl-N-(6-(5-(methyl-d3)-1,2,4-oxadiazol-3-yl)-2,3-dihydrobenzofuran-3-yl)-2H-tetrazole-5-carboxamide]	4.3 µM	17.1 µM
[2H]C([2H])([2H])c1noc(-c2ccc3c(c2)CC[C@H]3NC(=O)c2nnn(C)n2)n1 [Compound 272, (R)-2-methyl-N-(5-(3-(methyl-d3)-1,2,4-oxadiazol-5-yl)-2,3-dihydro-1H-inden-1-yl)-2H-tetrazole-5-carboxamide]	1.2 µM	4.3 µM
[2H]C([2H])([2H])c1noc(-c2ccc3c(c2)CC[C@H]3NC(=O)c2ccnn2C)n1 [Compound 273, (R)-1-methyl-N-(5-(3-(methyl-d3)-1,2,4-oxadiazol-5-yl)-2,3-dihydro-1H-inden-1-yl)-1H-pyrazole-5-carboxamide]	0.7 µM	2.4 µM
[2H]C([2H])([2H])c1noc(-c2ccc3c(c2)CC[C@H]3NC(=O)c2cnn(C)c2)n1 [Compound 274, (R)-1-methyl-N-(5-(3-(methyl-d3)-1,2,4-oxadiazol-5-yl)-2,3-dihydro-1H-inden-1-yl)-1H-pyrazole-4-carboxamide]	4.0 µM	15 µM
[2H]C([2H])([2H])c1noc(-c2ccc3c(c2)CC[C@H]3NC(=O)c2oncc2C)n1 [Compound 275, (R)-4-methyl-N-(5-(3-(methyl-d3)-1,2,4-oxadiazol-5-yl)-2,3-dihydro-1H-inden-1-yl)isoxazole-5-carboxamide]	0.8 µM	2.9 µM
Cn1cc(C(=O)N[C@@H]2CCc3cc(-c4nc(C(F)F)no4)ccc32)cn1 [Compound 276, (R)-N-(5-(3-(difluoromethyl)-1,2,4-oxadiazol-5-yl)-2,3-dihydro-1H-inden-1-yl)-1-methyl-1H-pyrazole-4-carboxamide]	2.6 µM	10.1 µM
Cc1c(C(=O)N[C@@H]2CCc3cc(-c4nc(C(F)F)no4)ccc32)cnn1C [Compound 277, (R)-N-(5-(3-(difluoromethyl)-1,2,4-oxadiazol-5-yl)-2,3-dihydro-1H-inden-1-yl)-1,5-dimethyl-1H-pyrazole-4-carboxamide]	1.4 µM	5.4 µM
CCOC(=O)N[C@@H]1CCc2cc(-c3noc(C(F)F)n3)ccc21 [Compound 278, ethyl (R)-(5-(5-(difluoromethyl)-1,2,4-oxadiazol-3-yl)-2,3-dihydro-1H-inden-1-yl)carbamate]	1.3 µM	5.2 µM
CC(C)OC(=O)N[C@@H]1CCc2cc(-c3noc(C(F)F)n3)ccc21 [Compound 279, isopropyl (R)-(5-(5-(difluoromethyl)-1,2,4-oxadiazol-3-yl)-2,3-dihydro-1H-inden-1-yl)carbamate]	22.4 µM	> 39.2 µM

The remaining lines, values ahead:

CDMF75 IC15	IC50	SMILES
0.7 µM	2.7 µM	CC(C)COC(=O)N[C@@H]1CCc2cc(-c3noc(C(F)F)n3)ccc21 [Compound 280, isobutyl (R)-(5-(5-(difluoromethyl)-1,2,4-oxadiazol-3-yl)-2,3-dihydro-1H-inden-1-yl)carbamate]
0.9 µM	> 39.2 µM	O=C(N[C@@H]1CCc2cc(-c3noc(C(F)F)n3)ccc21)OC1CCC1 [Compound 281, cyclobutyl (R)-(5-(5-(difluoromethyl)-1,2,4-oxadiazol-3-yl)-2,3-dihydro-1H-inden-1-yl)carbamate]
0.5 µM	1.9 µM	COC(=O)N[C@@H]1CCc2cc(-c3noc(C(F)F)n3)ccc21 [Compound 282, methyl (R)-(5-(5-(difluoromethyl)-1,2,4-oxadiazol-3-yl)-2,3-dihydro-1H-inden-1-yl)carbamate]
9.6 µM	> 39.2 µM	CCC(=O)N[C@@H]1CCc2cc(-c3noc(C(F)F)n3)ccc21 [Compound 283, (R)-N-(5-(5-(difluoromethyl)-1,2,4-oxadiazol-3-yl)-2,3-dihydro-1H-inden-1-yl)propionamide]
38.5 µM	> 39.2 µM	CC(C)C(=O)N[C@@H]1CCc2cc(-c3noc(C(F)F)n3)ccc21 [Compound 284, (R)-N-(5-(5-(difluoromethyl)-1,2,4-oxadiazol-3-yl)-2,3-dihydro-1H-inden-1-yl)isobutyramide]
9.3 µM	> 39.2 µM	COCC(=O)N[C@@H]1CCc2cc(-c3noc(C(F)F)n3)ccc21 [Compound 285, (R)-N-(5-(5-(difluoromethyl)-1,2,4-oxadiazol-3-yl)-2,3-dihydro-1H-inden-1-yl)-2-methoxyacetamide]
2.1 µM	10.2 µM	CC(=O)N[C@@H]1CCc2cc(-c3noc(C(F)F)n3)ccc21 [Compound 286, (R)-N-(5-(5-(difluoromethyl)-1,2,4-oxadiazol-3-yl)-2,3-dihydro-1H-inden-1-yl)acetamide]
39.2 µM	> 39.2 µM	O=C(N[C@@H]1CCc2cc(-c3noc(C(F)F)n3)ccc21)C1CCCC1 [Compound 287, (R)-N-(5-(5-(difluoromethyl)-1,2,4-oxadiazol-3-yl)-2,3-dihydro-1H-inden-1-yl)cyclopentanecarboxamide]
10.6 µM	> 39.2 µM	O=C(N[C@@H]1CCc2cc(-c3noc(C(F)F)n3)ccc21)C1COC1 [Compound 288, (R)-N-(5-(5-(difluoromethyl)-1,2,4-oxadiazol-3-yl)-2,3-dihydro-1H-inden-1-yl)oxetane-3-carboxamide]
39.2 µM	> 39.2 µM	O=C(NC1CC1)N[C@@H]1CCc2cc(-c3noc(C(F)F)n3)ccc21 [Compound 289, (R)-1-cyclopropyl-3-(5-(5-(difluoromethyl)-1,2,4-oxadiazol-3-yl)-2,3-dihydro-1H-inden-1-yl)urea]
